Data on 13 compounds can be found in ChEMBL document CHEMBL1201862, “PubChem BioAssay data set” (2004).

SMILES strings stand for the structures.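 Interpolation was linear, between the two tested concentrations surrounding the appropriate level; five concentrations were tested over 48 hours in 96-well plates. GI50 marks 50% less growth.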 Activity calls are given as the source filed them. Cut-off read from the data, not from the text of the source: active = GI50 up to about 1.1 µM and inactive = higher. Bounds are passed on as bounds.

Test systems include Hs-578T; TK-10; Malme-3M; SW-620; HCT-116; OVCAR-3; NCI-H522; ACHN; SK-MEL-2; SR; NCI-H23; U-251; HCC 2998; MDA-MB-231; M14; SK-MEL-5; NCI-H460; SNB-75; T47D.
Common to all, as to assay: NCI anticancer screen, dose series, 48 h

As for `O=C(c1ccc(-c2ccccc2)cc1)N(Cc1cccnc1)C(=S)N(Cc1cccnc1)C(=O)c1ccc(-c2ccccc2)cc1`, the GI50 in the assay on Hs-578T was > 100 µM (inactive); with TK-10, > 100 µM (inactive); with Malme-3M it was > 100 µM (inactive); with SW-620 it was > 100 µM (inactive); with HCT-116, 63.8 µM (inactive); with OVCAR-3, > 100 µM (inactive). For the same compound, the GI50 in the assay on NCI-H522 is > 100 µM (inactive); in the assay on ACHN, > 100 µM (inactive); in the assay on SK-MEL-2 it was > 100 µM (inactive); in the assay on SR, 0.241 µM (active); in the assay on NCI-H23, > 100 µM (inactive); with U-251 it was > 100 µM (inactive). Besides, the GI50 in the assay on HCC 2998 is > 100 µM (inactive); in the assay with MDA-MB-231, > 100 µM (inactive); in the assay on M14, 81.3 µM (inactive); in the assay with SK-MEL-5, 56 µM (inactive); in the assay with NCI-H460, > 100 µM (inactive).
As to `CCc1cc2c(c3[nH]ccc13)[C@@H](C)C[C@H]2C`, the GI50 was 19.5 µM (inactive) in the assay on TK-10; 18.6 µM (inactive) in the assay on Malme-3M; 19.8 µM (inactive) in the assay on SW-620; 16 µM (inactive) in the assay with HCT-116; 17.5 µM (inactive) with SNB-75; 20 µM (inactive) in the assay with OVCAR-3. The GI50 in the assay with NCI-H522 was 16.2 µM (inactive); in the assay with ACHN it was 16.7 µM (inactive); with NCI-H23, 17.8 µM (inactive); in the assay with U-251 it was 16.4 µM (inactive); in the assay with HCC 2998, 21.2 µM (inactive); in the assay with M14 it was 17.2 µM (inactive). Also, the GI50 was 16.9 µM (inactive) in the assay on SK-MEL-5 and 14.9 µM (inactive) in the assay with NCI-H460.
For the compound `Cc1cc2c(-c3ccccc3)cc(=O)[nH]c2cc1N`, the GI50 with T47D, with SW-620, with HCT-116, in the assay with SNB-75, in the assay on OVCAR-3 and with ACHN was > 100 µM (inactive) each time. Also, the GI50 in the assay on SK-MEL-2, with SR, in the assay with NCI-H23, in the assay with U-251, in the assay on HCC 2998 and in the assay on MDA-MB-231 was > 100 µM (inactive) throughout. Moreover, the GI50 in the assay on M14, in the assay on SK-MEL-5 and with NCI-H460 was > 100 µM (inactive) throughout.
On to `CC1(C)O[C@@H]([C@H](O)CO)[C@H](O)[C@@H](C2SCCCS2)O1`, for which the GI50 with T47D, in the assay with TK-10, with SW-620, with HCT-116, with SNB-75 and with OVCAR-3 was > 100 µM (inactive) in each case. The GI50 was > 100 µM (inactive) in the assay on ACHN; > 100 µM (inactive) in the assay with SK-MEL-2; 23.2 µM (inactive) in the assay with SR; > 100 µM (inactive) in the assay on NCI-H23; > 100 µM (inactive) in the assay with U-251; > 100 µM (inactive) with HCC 2998. Further, the GI50 in the assay on MDA-MB-231, in the assay with M14, with SK-MEL-5 and with NCI-H460 was > 100 µM (inactive) throughout.
Take `Cc1ccc(S(=O)(=O)N2CC(CCN)c3ccccc32)cc1` (configuration not stated): the GI50 in the assay on Hs-578T was 5.62 µM (inactive); with TK-10, 7.89 µM (inactive); in the assay with Malme-3M, 4 µM (inactive); in the assay on SW-620 it was 4.34 µM (inactive); in the assay on HCT-116, 2.27 µM (inactive); in the assay on SNB-75 it was 5.46 µM (inactive). Further, the GI50 in the assay with OVCAR-3 was 3.36 µM (inactive); in the assay on NCI-H522 it was 5.87 µM (inactive); in the assay with ACHN, 8.41 µM (inactive); in the assay on SK-MEL-2 it was 4.28 µM (inactive); with SR, 5.19 µM (inactive); in the assay on NCI-H23, 6.38 µM (inactive). Further, the GI50 was 3.72 µM (inactive) in the assay on U-251; 4.76 µM (inactive) in the assay with HCC 2998; 4.1 µM (inactive) in the assay on MDA-MB-231; 2.29 µM (inactive) with M14; 2.58 µM (inactive) with SK-MEL-5; 5.08 µM (inactive) in the assay with NCI-H460.
With `CC1=C(C)C(=O)c2c(cc3ccc4ccccc4n23)C1=O`, the GI50 in the assay with TK-10, in the assay on Malme-3M, in the assay with SW-620, with SNB-75, in the assay with OVCAR-3 and in the assay with ACHN was > 100 µM (inactive) in each case. The GI50 in the assay with SR, in the assay on NCI-H23, with U-251, with HCC 2998, in the assay with M14 and with SK-MEL-5 was > 100 µM (inactive) throughout. Further, the GI50 with NCI-H460 is > 100 µM (inactive).
As to `CC(C)Oc1c(-c2ccc(F)cc2)c(O)c2c3c1oc(=O)n3C=CC2C` (configuration not stated), the GI50 in the assay on Hs-578T was 20.2 µM (inactive); in the assay on TK-10, 16.9 µM (inactive); with Malme-3M, 22.3 µM (inactive); in the assay with SW-620 it was 14.3 µM (inactive); in the assay with HCT-116, 12.9 µM (inactive); in the assay on SNB-75, 14.8 µM (inactive). The GI50 in the assay with OVCAR-3 is 14.4 µM (inactive); in the assay with NCI-H522, 12.1 µM (inactive); in the assay on ACHN it was 14.5 µM (inactive); with SK-MEL-2 it was 17.8 µM (inactive); in the assay on NCI-H23 it was 11.8 µM (inactive); with U-251 it was 15.5 µM (inactive). In addition, the GI50 with HCC 2998 is 13.4 µM (inactive); in the assay with MDA-MB-231, 14.4 µM (inactive); in the assay with M14, 15.1 µM (inactive); in the assay with SK-MEL-5, 10.8 µM (inactive); in the assay with NCI-H460 it was 14.2 µM (inactive).
On to `O=C1c2ccccc2-c2nc3ccncc3n21`, for which the GI50 in the assay with TK-10 is > 100 µM (inactive); in the assay on Malme-3M, > 100 µM (inactive); in the assay on SW-620, > 100 µM (inactive); in the assay on HCT-116 it was 30.5 µM (inactive); in the assay with SNB-75, > 100 µM (inactive); in the assay on OVCAR-3, > 100 µM (inactive). The GI50 in the assay on NCI-H522, with ACHN, in the assay on SK-MEL-2, in the assay with SR, with NCI-H23 and in the assay with U-251 was > 100 µM (inactive) in each case. Besides, the GI50 in the assay on HCC 2998 and in the assay with NCI-H460 was > 100 µM (inactive) in each case.
As to `CN(CCCNC(=O)c1cn(C)c2c1Cc1ccccc1-2)CCCNC(=O)c1cn(C)c2c1Cc1ccccc1-2`, the GI50 in the assay on Hs-578T is 5.85 µM (inactive); with TK-10 it was 11.6 µM (inactive); with Malme-3M, 11.7 µM (inactive); in the assay with SW-620, 3.66 µM (inactive); in the assay on HCT-116 it was 9.33 µM (inactive); with OVCAR-3, 15.6 µM (inactive). Also, the GI50 with ACHN was 10.5 µM (inactive); in the assay on SK-MEL-2, 16.7 µM (inactive); in the assay on SR, 1.45 µM (inactive); with NCI-H23 it was 14.2 µM (inactive); in the assay with U-251, 7.43 µM (inactive); in the assay with MDA-MB-231, 13.6 µM (inactive). Further, the GI50 was 3.81 µM (inactive) in the assay with M14, 14.2 µM (inactive) in the assay with SK-MEL-5 and 8.89 µM (inactive) in the assay with NCI-H460.
Take `CN(C)c1ccc(/C=N/c2ccc(-c3nc4ccccc4s3)cc2)cc1`: the GI50 in the assay on T47D was 20 µM (inactive); with TK-10, 30.1 µM (inactive); with Malme-3M, 31.6 µM (inactive); in the assay on SW-620 it was 22.9 µM (inactive); in the assay on HCT-116 it was 33 µM (inactive); with SNB-75 it was 26.3 µM (inactive). In addition, the GI50 is 15.9 µM (inactive) in the assay on OVCAR-3; 18.1 µM (inactive) with NCI-H522; 17.4 µM (inactive) with ACHN; 22.9 µM (inactive) in the assay with SK-MEL-2; 36.3 µM (inactive) in the assay with SR; 29.9 µM (inactive) in the assay on NCI-H23. Further, the GI50 is 29.2 µM (inactive) in the assay with U-251; 20.8 µM (inactive) in the assay on HCC 2998; 41.1 µM (inactive) in the assay on M14; 19.3 µM (inactive) in the assay on SK-MEL-5; 27.4 µM (inactive) in the assay with NCI-H460.
With `Nc1c(C(=O)c2ccc(Cl)c(Cl)c2)[nH]c(NCc2ccccc2)c1C(=S)Nc1ccccc1`, the GI50 in the assay on T47D was 16.5 µM (inactive); with TK-10, 17.8 µM (inactive); in the assay with Malme-3M, 3.13 µM (inactive); in the assay on SW-620, 3.22 µM (inactive); in the assay with HCT-116, 3.48 µM (inactive); in the assay on SNB-75, 10 µM (inactive). The GI50 with OVCAR-3 is 17.5 µM (inactive); with NCI-H522, 4.83 µM (inactive); in the assay with ACHN, 12.2 µM (inactive); in the assay with SK-MEL-2, 12.4 µM (inactive); in the assay with SR it was 3.1 µM (inactive); in the assay with NCI-H23 it was 18.2 µM (inactive). Moreover, the GI50 with U-251 was 3.96 µM (inactive); with HCC 2998, 1.74 µM (inactive); in the assay on MDA-MB-231 it was 4.73 µM (inactive); in the assay with M14 it was 3.56 µM (inactive); with NCI-H460, 5.42 µM (inactive).
As to `CCCc1n[nH]c(=O)n1N1C(=O)C=CC1=O`, the GI50 in the assay with T47D, in the assay with TK-10, in the assay with Malme-3M, in the assay on HCT-116, in the assay with OVCAR-3 and in the assay on NCI-H522 was > 100 µM (inactive) each time. The GI50 in the assay with SK-MEL-2, with SR, in the assay with NCI-H23, with U-251, in the assay on HCC 2998 and in the assay on MDA-MB-231 was > 100 µM (inactive) throughout. Further, the GI50 in the assay on M14, in the assay on SK-MEL-5 and in the assay on NCI-H460 was > 100 µM (inactive) throughout.
With `N#CC1(C#N)NC(c2cccnc2)C(C#N)(C#N)NC1c1cccnc1` (configuration not stated), the GI50 in the assay with T47D was > 100 µM (inactive); with TK-10, > 100 µM (inactive); in the assay with Malme-3M, > 100 µM (inactive); with SW-620, > 100 µM (inactive); with HCT-116, > 100 µM (inactive); with SNB-75, 47.9 µM (inactive). Also, the GI50 in the assay on OVCAR-3, in the assay with SK-MEL-2, in the assay on NCI-H23, with U-251, in the assay with HCC 2998 and in the assay on MDA-MB-231 was > 100 µM (inactive) in each case. For the same compound, the GI50 in the assay on M14 and in the assay on SK-MEL-5 was > 100 µM (inactive) in each case.
